{"source": "patent US20040006139A1", "about": "“Choline pyruvate, method for the production thereof, formulations containing choline pyruvate and the use thereof” (priority 2000, published 2004)", "key": {"[1]": {"details": "cited from earlier work"}, "[2]": {"system": "intestinal bacteria", "details": "by intestinal bacteria; cited from earlier work"}, "[3]": {"details": "12 hours of storage in a refrigerator; clear, yellow liquid"}, "[4]": {"details": "person, run over marathon distance (26.2 miles), daily supplement of 10 g"}, "[5]": {"details": "person, daily supplement of 5 g"}, "[6]": {"details": "long-distance runners, 20 miles, intake of 2.8 g, placebo-controlled; cited from earlier work"}}, "note": "Like-named read-outs stand apart in the source and are kept apart here.", "data": [{"compound": "C[N+](C)(C)CCO", "note": "[choline, hydroxyethyltrimethylammonium]", "values": [{"measurement": "lowest-observed-adverse-effect level (LOAEL)", "setting": "[1]; in vivo", "value": 7.5, "unit": "g/day"}, {"measurement": "upper tolerable daily dose", "setting": "[1]; taking into consideration an element of uncertainty", "value": 3.5, "unit": "g"}, {"measurement": "oral intake converted into di- or trimethylamine", "setting": "[2]", "value": "Approximately 60%"}]}, {"compound": "choline pyruvate [Example 1]", "values": [{"measurement": "Appearance", "setting": "Day 4", "value": "clear"}, {"measurement": "HPLC content Parapyruvate", "setting": "Day 4", "value": 2.7, "unit": "%"}, {"measurement": "HPLC content Pyruvate", "setting": "Day 4", "value": 35.3, "unit": "%"}, {"measurement": "IC content Choline", "setting": "Day 4", "value": 50.6, "unit": "%"}, {"measurement": "Appearance", "setting": "Day 21", "value": "clear"}, {"measurement": "HPLC content Parapyruvate", "setting": "Day 21", "value": 2.6, "unit": "%"}, {"measurement": "HPLC content Pyruvate", "setting": "Day 21", "value": 35.8, "unit": "%"}, {"measurement": "IC content Choline", "setting": "Day 21", "value": 50.6, "unit": "%"}, {"measurement": "Appearance", "setting": "Day 42", "value": "clear"}, {"measurement": "HPLC content Parapyruvate", "setting": "Day 42", "value": 2.6, "unit": "%"}, {"measurement": "HPLC content Pyruvate", "setting": "Day 42", "value": 35.5, "unit": "%"}, {"measurement": "IC content Choline", "setting": "Day 42", "value": 50.7, "unit": "%"}, {"measurement": "Appearance", "setting": "Day 103", "value": "clear"}, {"measurement": "HPLC content Parapyruvate", "setting": "Day 103", "value": 2.8, "unit": "%"}, {"measurement": "HPLC content Pyruvate", "setting": "Day 103", "value": 35.9, "unit": "%"}, {"measurement": "IC content Choline", "setting": "Day 103", "value": 50.6, "unit": "%"}, {"measurement": "stability during storage", "setting": "[3]", "value": "remained stable"}, {"measurement": "performance increase", "setting": "[4]", "value": 4, "unit": "%"}, {"measurement": "fat-free body mass", "setting": "[5]", "value": "increase"}, {"measurement": "weight reduction", "setting": "[5]", "value": "approximately 3%"}]}, {"compound": "C[N+](C)(C)CCO.[Cl-]", "note": "[choline chloride]", "values": [{"measurement": "performance increase", "setting": "[6]", "value": "approximately 3%"}]}]}
